For data set [1] the following is noted: oral ingestion; cited from earlier work.
A further data set relates to acneiform eruptions. Put plainly: Case reports: effect on acneiform eruptions in patients. Format: in vivo, human. The source says:
The effect of the micronutrient/mineral supplement of the present invention on acneiform eruptions is illustrated below.
1. patient six was a person with a long history of cystic acne vulgaris. They had no history of polycystic ovarian syndrome, ovarian cysts, oligomenorrhea or amenorrhea. Topical benzoyl peroxide and antibiotics provided no relief of their acne. They refused both oral contraceptive use or a trial of the diuretic spironolactone for possible acne benefits. They were contemplating a trial of accutane, when they decided to see an endocrinologist for a possible hormone etiology of their skin condition. Complete blood count, chemistries, thyroid function tests, AM cortisol were normal. Vitamin B12 and folate concentrations were normal; the total testosterone was 40 ng and not elevated; the androgenic steroids—DHEAS and androstenedione were normal. The 25 hydroxyvitamin D concentration was <5 ng/ml and intact parathyroid hormone (PTH) was elevated at 69 pg/ml (normal up to 65 pg). […] At four months, the 25 vitamin D concentration was 31 ng/ml and the total vitamin D3 was reduced to 2000 IU daily.
2. patient two was a person with chronic fatigue, inability to lose weight and severe chronic acne vulgaris unresponsive to topical treatments. They had been on Accutane multilple times but their skin improvement was transient with continual periodic acne eruptions. […] They were prescribed vitamin D3 at 4000 IU daily with calcium carbonate (elemental calcium) at 1500 mg; folate 2000 IU; vitamin B6 at 50 mcg and vitamin B12 at 500 mcg daily (B12 was prescribed at 500 mcg for 2 weeks only because of B12 deficiency) and then lowered to 50 mcg daily). A repeat 25 vitamin D level at 3 months was 30 ng and the total daily vitamin D was then lowered to 2000 IU daily; repeat B12 level was normal.
3. patient one was a person with a known history of oligomenorrhea/amenorrhea. Their menstrual cycles had been irregular with fewer than 8 cycles per year. Oral contraceptives prescribed 5 years ago normalized their menstrual cycles. […]

The structures appear in SMILES notation.

Turning to `C=C1CC[C@H](O)C/C1=C/C=C1\CCC[C@]2(C)[C@@H]([C@H](C)CCCC(C)C)CC[C@@H]12` [cholecalciferol], the “daily dose at which toxicity occurs” value in data set [1] was 40,000 IU.
Take `CC1=C(/C=C/C(C)=C/C=C/C(C)=C\C(=O)O)C(C)(C)CCC1` [Accutane]: the effect on acne entry in the data set with acneiform eruptions (patient one, earlier and current treatment) is listed as “without success”. Besides, in the data set on acneiform eruptions (patient two, earlier treatment, multiple courses), the skin improvement entry is recorded as “transient”.
Take `O=C(OOC(=O)c1ccccc1)c1ccccc1` [benzoyl peroxide]: in the data set on acneiform eruptions (patient six, earlier topical treatment), the relief of acne result is listed as “no relief”.

(Values after US20050196469A1, “Micronutrient supplement combination for acne treatment and prevention” (priority 2004, published 2005).)
